Data taken from US9409905B2, “Antibacterial compounds and methods for use” (PTC THERAPEUTICS, INC., priority 2011, dated 2016).
≈ marks a conversion by molar mass, not a printed value.

Columns and labels:
[1] = system: Escherichia coli (E. coli) BAS849; assay: Antibacterial activity, microbroth dilution MIC (Table 1); type: cell-based; conditions: microbroth dilution, super sensitive Gram-negative E. coli BAS849, read-out: MIC, BAS849
Summary of the method: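 Potency is reported as minimum inhibitory concentration in μg/mL, determined by broth microdilution as the lowest level of compound that stops growth visible to the eye.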

[2] = system: Staphylococcus aureus (S. aureus) 29213; assay: as above; type: cell-based; conditions: microbroth dilution, Gram-positive S. aureus 29213, read-out: MIC, 29213
Summary of the method: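 MIC (μg/mL) is taken as the lowest concentration with no macroscopically visible growth. Strains tested by microbroth dilution: Gram-positive S. aureus 29213, control Gram-negative E. coli 25922, and super-sensitive E. coli BAS849.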

E. coli 25922 = assay: as above; type: cell-based, Escherichia coli; conditions: Escherichia coli; microbroth dilution; control Gram-negative E. coli 25922 strain; read-out: MIC, 25922
Summary of the method: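 Values are MICs (μg/mL): the smallest drug amount at which macroscopically visible bacterial growth is absent under assay conditions, from a microdilution method in broth.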

E. coli LZ3111 = assay: Antibacterial activity, MIC, quinolone resistant strain (Table 2); type: cell-based; conditions: Escherichia coli, LZ3111, read-out: MIC LZ3111
Summary of the method: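 Strain carries mutations conferring high-level quinolone resistance; tested by microbroth dilution, MIC recorded in μg/mL as lowest concentration preventing visible growth.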

[3] = system: Acinetobacter baumannii (A. baumannii) BAA747; assay: Antibacterial activity, MIC (Table 4); type: cell-based; conditions: A. baumannii BAA747, read-out: MIC, BAA747
Summary of the method: (§1)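 MIC in μg/mL by microbroth dilution, scored as the lowest level that suppresses visible growth.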

[4] = system: Klebsiella pneumoniae (K. pneumoniae) 35657; assay: Antibacterial activity, MIC (Table 4); type: cell-based; conditions: K. pneumoniae 35657, read-out: MIC, 35657
Summary of the method: as §1

A. baumannii MXX2240 = assay: Antibacterial activity, MIC, resistant strain (Table 4); type: cell-based; conditions: Acinetobacter baumannii, MXX2240; resistant A. baumannii MMX2240, multi-drug resistant clinical isolate; read-out: MIC, MMX2240
Summary of the method: as §1

K. pneumoniae MXX1232 = assay: as above; type: cell-based; conditions: Klebsiella pneumoniae, MXX1232; resistant K. pneumoniae MMX1232, multi-drug resistant clinical isolate; read-out: MIC, MMX1232
Summary of the method: as §1

[5] = system: Pseudomonas aeruginosa (P. aeruginosa) 27853; assay: Antibacterial activity, MIC (Table 5); type: cell-based; conditions: P. aeruginosa 27853, read-out: MIC, 27853
Summary of the method: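 Compounds are serially diluted in broth and inoculated with the organism. Growth is then inspected macroscopically, and the lowest concentration showing none is taken as the MIC (μg/mL).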

Compound | MIC [1] [µg/mL] | MIC [2] [µg/mL] | MIC (E. coli 25922) [µg/mL] | MIC (E. coli LZ3111) [µg/mL] | MIC [3] [µg/mL] | MIC [4] [µg/mL] | MIC (A. baumannii MXX2240) [µg/mL] | MIC (K. pneumoniae MXX1232) [µg/mL] | MIC [5] [µg/mL]
CCc1c(-c2ccc3cn(C)nc3c2)[nH]c(=O)c(C(=O)O)c1O [Cpd 389, 5-ethyl-4-hydroxy-6-(2-methyl-2H-indazol-6-yl)-2-oxo-1,2-dihydropyridine-3-carboxylic acid] | 3.5 to 12.5 (≈ 11.2 to 39.9 µM) | 12.5 to 150 (≈ 39.9 to 479 µM) | 12.5 to 150 (≈ 39.9 to 479 µM) | 3.5 to 12.5 (≈ 11.2 to 39.9 µM) | 12.5 to 150 (≈ 39.9 to 479 µM) | 12.5 to 150 (≈ 39.9 to 479 µM) | 3.5 to 12.5 (≈ 11.2 to 39.9 µM) | 12.5 to 150 (≈ 39.9 to 479 µM) | 12.5 to 150 (≈ 39.9 to 479 µM)
CCc1c(-c2ccc3cnn(C)c3c2)[nH]c(=O)c(C(=O)O)c1O [Cpd 390, 5-ethyl-4-hydroxy-6-(1-methyl-1H-indazol-6-yl)-2-oxo-1,2-dihydropyridine-3-carboxylic acid] | 12.5 to 150 (≈ 39.9 to 479 µM) | 12.5 to 150 (≈ 39.9 to 479 µM) | 12.5 to 150 (≈ 39.9 to 479 µM) | 3.5 to 12.5 (≈ 11.2 to 39.9 µM) | 12.5 to 150 (≈ 39.9 to 479 µM) | 12.5 to 150 (≈ 39.9 to 479 µM) | 3.5 to 12.5 (≈ 11.2 to 39.9 µM) | 12.5 to 150 (≈ 39.9 to 479 µM) | 12.5 to 150 (≈ 39.9 to 479 µM)
CCc1c(-c2ccc3cn[nH]c3c2)[nH]c(=O)c(C(=O)O)c1O [Cpd 391, 5-ethyl-4-hydroxy-6-(1H-indazol-6-yl)-2-oxo-1,2-dihydropyridine-3-carboxylic acid] | 3.5 to 12.5 (≈ 11.7 to 41.8 µM) | 12.5 to 150 (≈ 41.8 to 501 µM) | 12.5 to 150 (≈ 41.8 to 501 µM) | 3.5 to 12.5 (≈ 11.7 to 41.8 µM) | 12.5 to 150 (≈ 41.8 to 501 µM) | 3.5 to 12.5 (≈ 11.7 to 41.8 µM) | 12.5 to 150 (≈ 41.8 to 501 µM) | 12.5 to 150 (≈ 41.8 to 501 µM) | 12.5 to 150 (≈ 41.8 to 501 µM)
CCc1c(-c2ccc3[nH]ncc3c2)[nH]c(=O)c(C(=O)O)c1O [Cpd 392, 5-ethyl-4-hydroxy-6-(1H-indazol-5-yl)-2-oxo-1,2-dihydropyridine-3-carboxylic acid] | 3.5 to 12.5 (≈ 11.7 to 41.8 µM) | 12.5 to 150 (≈ 41.8 to 501 µM) | 12.5 to 150 (≈ 41.8 to 501 µM) | 3.5 to 12.5 (≈ 11.7 to 41.8 µM) | 12.5 to 150 (≈ 41.8 to 501 µM) | 3.5 to 12.5 (≈ 11.7 to 41.8 µM) | 12.5 to 150 (≈ 41.8 to 501 µM) | 12.5 to 150 (≈ 41.8 to 501 µM) | 12.5 to 150 (≈ 41.8 to 501 µM)
CCc1c(-c2ccc3nn(C)cc3c2)[nH]c(=O)c(C(=O)O)c1O [Cpd 393, 5-ethyl-4-hydroxy-6-(2-methyl-2H-indazol-5-yl)-2-oxo-1,2-dihydropyridine-3-carboxylic acid] | < 1 | 12.5 to 150 (≈ 39.9 to 479 µM) | 3.5 to 12.5 (≈ 11.2 to 39.9 µM) | 3.5 to 12.5 (≈ 11.2 to 39.9 µM) | 3.5 to 12.5 (≈ 11.2 to 39.9 µM) | 12.5 to 150 (≈ 39.9 to 479 µM) | 3.5 to 12.5 (≈ 11.2 to 39.9 µM) | 12.5 to 150 (≈ 39.9 to 479 µM) | 12.5 to 150 (≈ 39.9 to 479 µM)
Cc1c(-c2ccc3c(cnn3C)c2)[nH]c(=O)c(C(=O)O)c1O [Cpd 394, 4-hydroxy-5-methyl-6-(1-methyl-1H-indazol-5-yl)-2-oxo-1,2-dihydropyridine-3-carboxylic acid] | 3.5 to 12.5 (≈ 11.7 to 41.8 µM) | 12.5 to 150 (≈ 41.8 to 501 µM) | 12.5 to 150 (≈ 41.8 to 501 µM) | < 1 | 12.5 to 150 (≈ 41.8 to 501 µM) | 12.5 to 150 (≈ 41.8 to 501 µM) | < 1 | 12.5 to 150 (≈ 41.8 to 501 µM) | 12.5 to 150 (≈ 41.8 to 501 µM)
Cc1c(-c2ccc3nn(C)cc3c2)[nH]c(=O)c(C(=O)O)c1O [Cpd 395, 4-hydroxy-5-methyl-6-(2-methyl-2H-indazol-5-yl)-2-oxo-1,2-dihydropyridine-3-carboxylic acid] | 12.5 to 150 (≈ 41.8 to 501 µM) | 3.5 to 12.5 (≈ 11.7 to 41.8 µM) | 12.5 to 150 (≈ 41.8 to 501 µM) | 1 to 3.5 (≈ 3.34 to 11.7 µM) | 12.5 to 150 (≈ 41.8 to 501 µM) | 12.5 to 150 (≈ 41.8 to 501 µM) | 3.5 to 12.5 (≈ 11.7 to 41.8 µM) | 12.5 to 150 (≈ 41.8 to 501 µM) | 12.5 to 150 (≈ 41.8 to 501 µM)
Cc1c(-c2ccc3cnn(C)c3c2)[nH]c(=O)c(C(=O)O)c1O [Cpd 396, 4-hydroxy-5-methyl-6-(1-methyl-1H-indazol-6-yl)-2-oxo-1,2-dihydropyridine-3-carboxylic acid] | 12.5 to 150 (≈ 41.8 to 501 µM) | 12.5 to 150 (≈ 41.8 to 501 µM) | 12.5 to 150 (≈ 41.8 to 501 µM) | 1 to 3.5 (≈ 3.34 to 11.7 µM) | 12.5 to 150 (≈ 41.8 to 501 µM) | 12.5 to 150 (≈ 41.8 to 501 µM) | 3.5 to 12.5 (≈ 11.7 to 41.8 µM) | 12.5 to 150 (≈ 41.8 to 501 µM) | 12.5 to 150 (≈ 41.8 to 501 µM)
